Experimental data reported in PubChem BioAssay (NCI).
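Each compound was tested at five concentrations against cells in 96-well plates for 48 hours. The concentration for full growth arrest is given as TGI.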

Assays:
Test in all cases: NCI tumour cell line growth inhibition, 48 h
[1] = tested on: SK-MEL-28 melanoma
[2] = tested on: SF-295 CNS
[3] = tested on: EKVX NSCLC
[4] = tested on: SK-OV-3 ovarian
[5] = tested on: DMS 273 small cell lung
[6] = tested on: A498 renal
[7] = tested on: NCI-H460 lung
[8] = tested on: HL-60(TB) leukemia
[9] = tested on: NCI-H226 lung
[10] = tested on: OVCAR-8 ovarian
[11] = tested on: A549 NSCLC
[12] = tested on: NCI-H522 lung
[13] = tested on: UACC-257 melanoma
[14] = tested on: HOP-62 NSCLC
[15] = tested on: RXF 393 renal
[16] = tested on: SNB-19 CNS
[17] = tested on: UO-31 renal
[18] = tested on: DMS 114 small cell lung
[19] = tested on: KM12 colon
[20] = tested on: OVCAR-5 ovarian
[21] = tested on: SR leukemia
[22] = tested on: SNB-78 CNS
[23] = tested on: U251 CNS
[24] = tested on: NCI-H23 lung
[25] = tested on: CCRF-CEM leukemia
[26] = tested on: TK-10 renal
[27] = tested on: HT29 colon
[28] = tested on: HOP-92 NSCLC
[29] = tested on: ACHN renal
[30] = tested on: M14 melanoma
[31] = tested on: HCT-116 colon
[32] = tested on: IGROV1 ovarian
[33] = tested on: MOLT-4 leukemia
[34] = tested on: LOX IMVI melanoma
[35] = tested on: SNB-75 CNS
[36] = tested on: 786-0 renal
[37] = tested on: M19-MEL melanoma
[38] = tested on: SK-MEL-5 melanoma
[39] = tested on: SW-620 colon
[40] = tested on: LXFL 529 NSCLC
[41] = tested on: SF-539 CNS
[42] = tested on: HOP-18 NSCLC
[43] = tested on: HCT-15 colon
[44] = tested on: SN12C renal
[45] = tested on: K-562 leukemia
[46] = tested on: OVCAR-3 ovarian
[47] = tested on: KM20L2 colon
[48] = tested on: XF 498 CNS
[49] = tested on: MALME-3M melanoma
[50] = tested on: RPMI-8226 leukemia
[51] = tested on: HCC-2998 colon
[52] = tested on: DLD-1 colon
[53] = tested on: UACC-62 melanoma
[54] = tested on: COLO 205 colon

How did the TGI [1] turn out when `CCN(CC)CSc1nc2ccccc2[nH]1` was run?
The TGI was > 100 µM.

What about the TGI [2] of the same molecule?
The TGI was > 100 µM.

What about the TGI [3] of the same molecule?
Its TGI is > 100 µM.

What about the TGI [4] of the same molecule?
The TGI was > 100 µM.

What about the TGI [5] of the same molecule?
Its TGI is > 100 µM.

And the TGI [6]?
Its TGI is > 100 µM.

What about the TGI [7] of the same molecule?
Its TGI is > 100 µM.

And the TGI [8]?
The TGI was > 100 µM.

And the TGI [9]?
The TGI was > 100 µM.

And the TGI [10]?
Its TGI is > 100 µM.

And the TGI [11]?
The TGI was > 100 µM.

And the TGI [12]?
The TGI was > 100 µM.

And the TGI [13]?
Its TGI is > 100 µM.

What about the TGI [14] of the same molecule?
The TGI was > 100 µM.

And the TGI [15]?
Its TGI is > 100 µM.

And the TGI [16]?
Its TGI is > 100 µM.

What about the TGI [17] of the same molecule?
The TGI was > 100 µM.

And the TGI [18]?
The TGI was > 100 µM.

What about the TGI [19] of the same molecule?
Its TGI is > 100 µM.

What about the TGI [20] of the same molecule?
Its TGI is > 100 µM.

And the TGI [21]?
The TGI was > 100 µM.

What about the TGI [22] of the same molecule?
Its TGI is > 100 µM.

And the TGI [23]?
Its TGI is > 100 µM.

And the TGI [24]?
Its TGI is > 100 µM.

And the TGI [25]?
The TGI was > 100 µM.

And the TGI [26]?
The TGI was > 100 µM.

And the TGI [27]?
Its TGI is > 100 µM.

What about the TGI [28] of the same molecule?
The TGI was > 100 µM.

What about the TGI [29] of the same molecule?
Its TGI is > 100 µM.

What about the TGI [30] of the same molecule?
Its TGI is > 100 µM.

And the TGI [31]?
Its TGI is > 100 µM.

And the TGI [32]?
The TGI was > 100 µM.

And the TGI [33]?
The TGI was > 100 µM.

Which results are given for `Cc1cc(=O)n(-c2cc3cccccc-3n2)[nH]1`?
TGI [1]: > 100 µM; TGI [34]: > 100 µM; TGI [2]: > 100 µM; TGI [3]: 96.7 µM; TGI [4]: 47 µM; TGI [35]: 31.7 µM; TGI [6]: 46.9 µM; TGI [36]: 18 µM; TGI [7]: 16.1 µM; TGI [37]: 22.3 µM; TGI [38]: 5.32 µM; TGI [8]: 11.6 µM; TGI [9]: 44.4 µM; TGI [39]: 13 µM; TGI [11]: > 100 µM; TGI [12]: 6.86 µM; TGI [13]: 48.3 µM; TGI [14]: > 100 µM; TGI [15]: 11.2 µM; TGI [16]: > 100 µM; TGI [17]: 48.3 µM; TGI [18]: 7.73 µM; TGI [19]: 91.5 µM; TGI [20]: > 100 µM; TGI [40]: 16.9 µM; TGI [41]: 59 µM; TGI [42]: 85.2 µM; TGI [43]: 25.5 µM; TGI [44]: 62.3 µM; TGI [45]: 15.5 µM; TGI [23]: 4.96 µM; TGI [46]: 8.23 µM; TGI [47]: > 100 µM; TGI [48]: 7.46 µM; TGI [24]: 47.4 µM; TGI [25]: > 100 µM; TGI [49]: 9.84 µM; TGI [26]: > 100 µM; TGI [27]: 35.6 µM; TGI [29]: 50.3 µM; TGI [50]: 67.2 µM; TGI [30]: 19.6 µM; TGI [51]: 48.7 µM; TGI [52]: > 100 µM; TGI [31]: 5.27 µM; TGI [53]: 7.61 µM; TGI [32]: 8.45 µM; TGI [33]: > 100 µM; TGI [54]: 43.6 µM
